Results taken from ChEMBL document CHEMBL5325446, “Design and synthesis of proteolysis-targeting chimeras (PROTACs) as degraders of glutathione peroxidase 4” (Bioorg Med Chem, 2023).
Active and inactive are the calls of the source. No cut-off for these calls is given here.

Key:
[1] = molecular target: Protein cereblon/Phospholipid hydroperoxide glutathione peroxidase GPX4 (Homo sapiens) (UniProt Q96SW2+P36969); test: PROTAC activity at CRBN/GPX4 in human MGC-803 cells assessed as induction of GPX4 degradation at 10 uM incubated for 24 hrs by Western blot analysis; type: cell-based
[2] = molecular target: von Hippel-Lindau disease tumor suppressor/Phospholipid hydroperoxide glutathione peroxidase GPX4 (Homo sapiens) (UniProt P40337+P36969); test: PROTAC activity at VHL/GPX4 in human MGC-803 cells assessed as induction of GPX4 degradation at 10 uM incubated for 24 hrs by Western blot analysis; type: cell-based
[3] = tested on: HT-1080; test: Induction of ferroptosis in human HT-1080 cells assessed as […] accumulation at 10 uM incubated for 12 hrs by C11-BODIPY staining based flow cytometry analysis; type: functional, cell-based
[4] = tested on: HT-1080; test: Induction of ferroptosis in human HT-1080 cells assessed as […] accumulation at 10 uM incubated for 24 hrs by C11-BODIPY staining based flow cytometry analysis; type: functional, cell-based
[5] = tested on: HT-1080; test: Cytotoxicity against human HT-1080 cells assessed as cell growth inhibition incubated for 48 hrs by CCK-8 assay; type: functional, cell-based; details: HT-1080, 48 h

Protein cereblon/Phospholipid hydroperoxide glutathione peroxidase GPX4 (Homo sapiens), sequence (P36969 whole entry, looked up): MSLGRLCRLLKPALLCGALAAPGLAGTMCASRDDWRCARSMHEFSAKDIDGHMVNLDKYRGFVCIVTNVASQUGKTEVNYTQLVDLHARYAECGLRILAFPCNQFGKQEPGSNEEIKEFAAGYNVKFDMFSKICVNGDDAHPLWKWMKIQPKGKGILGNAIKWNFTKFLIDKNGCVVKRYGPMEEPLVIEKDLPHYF
Protein cereblon/Phospholipid hydroperoxide glutathione peroxidase GPX4 (Homo sapiens), sequence (Q96SW2 whole entry, looked up): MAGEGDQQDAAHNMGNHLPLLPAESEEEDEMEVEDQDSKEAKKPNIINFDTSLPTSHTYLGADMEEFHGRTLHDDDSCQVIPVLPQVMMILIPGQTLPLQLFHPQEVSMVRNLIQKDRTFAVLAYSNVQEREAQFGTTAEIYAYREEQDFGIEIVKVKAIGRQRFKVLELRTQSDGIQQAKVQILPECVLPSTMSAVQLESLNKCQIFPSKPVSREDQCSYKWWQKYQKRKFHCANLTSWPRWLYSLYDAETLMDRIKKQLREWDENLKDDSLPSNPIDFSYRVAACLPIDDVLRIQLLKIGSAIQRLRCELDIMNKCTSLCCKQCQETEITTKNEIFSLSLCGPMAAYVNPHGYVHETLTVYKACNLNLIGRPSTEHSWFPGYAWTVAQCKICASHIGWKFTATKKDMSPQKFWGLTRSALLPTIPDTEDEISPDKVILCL
von Hippel-Lindau disease tumor suppressor/Phospholipid hydroperoxide glutathione peroxidase GPX4 (Homo sapiens), sequence (P36969 whole entry, looked up): as the sequence (P36969 whole entry, looked up) above
von Hippel-Lindau disease tumor suppressor/Phospholipid hydroperoxide glutathione peroxidase GPX4 (Homo sapiens), sequence (P40337 whole entry, looked up): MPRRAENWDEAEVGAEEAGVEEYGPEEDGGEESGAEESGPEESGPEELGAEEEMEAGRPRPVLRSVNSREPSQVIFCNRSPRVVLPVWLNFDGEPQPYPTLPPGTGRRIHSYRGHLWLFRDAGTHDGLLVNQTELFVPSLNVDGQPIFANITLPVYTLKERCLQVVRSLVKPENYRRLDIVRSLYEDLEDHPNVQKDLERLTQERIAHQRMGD

`O=C1CCC(N2C(=O)c3cccc(NCCOCCOCCC(=O)N4CCN(CC(=O)Nc5ccc(N(C(=O)CCl)C(C(=O)NCCc6ccccc6)c6cccs6)cc5)CC4)c3C2=O)C(=O)N1` (centres undefined) was tested, and the Activity [1] was 18.2%.

With `Cc1ncsc1-c1ccc([C@H](C)NC(=O)[C@@H]2C[C@@H](O)CN2C(=O)[C@@H](NC(=O)CCCCC(=O)Nc2ccc(N(C(=O)CCl)C(C(=O)NCCc3ccccc3)c3cccs3)cc2)C(C)(C)C)cc1` (some centres undefined) the Activity [2] was less than 10%.

Work on `COc1ccc(N(C(=O)CCl)C(C(=O)NCCc2ccccc2)c2ccc(NC(=O)CCOCCOCCOCCNc3cccc4c3C(=O)N(C3CCC(=O)NC3=O)C4=O)cc2)cc1Cl` (centres undefined) yielded an Activity [2] of less than 10%.

For `O=C1CCC(N2C(=O)c3cccc(NCCOCCOCCOCCOCCC(=O)N4CCN(CC(=O)Nc5ccc(N(C(=O)CCl)C(C(=O)NCCc6ccccc6)c6cccs6)cc5)CC4)c3C2=O)C(=O)N1` (centres undefined), the Activity [1] was 19.9%.

For `Cc1ncsc1-c1ccc([C@H](C)NC(=O)[C@@H]2C[C@@H](O)CN2C(=O)[C@@H](NC(=O)CCCCCCC(=O)Nc2ccc(N(C(=O)CCl)C(C(=O)NCCc3ccccc3)c3cccs3)cc2)C(C)(C)C)cc1` (some centres undefined), the Activity [2] was 45%, the Activity [3] was “inactive” and the Activity [4] was “Active”.

`O=C1CCC(N2C(=O)c3cccc(NCCOCCC(=O)N4CCN(CC(=O)Nc5ccc(N(C(=O)CCl)C(C(=O)NCCc6ccccc6)c6cccs6)cc5)CC4)c3C2=O)C(=O)N1` (centres undefined) was tested, and the Activity [1] was 33%, the IC50 [5] was 11.7 µM and the Activity [3] was “Active”. The Activity [4] was “Active”.

`O=C(CCOCCNc1cccc2c1C(=O)N(C1CCC(=O)NC1=O)C2=O)NCCC(=O)Nc1ccc(N(C(=O)CCl)C(C(=O)NCCc2ccccc2)c2cccs2)cc1` (centres undefined) gave an Activity [1] of less than 10%.

Molecule `Cc1ncsc1-c1ccc([C@H](C)NC(=O)[C@@H]2C[C@@H](O)CN2C(=O)[C@@H](NC(=O)CCCCC(=O)N2CCN(CC(=O)Nc3ccc(N(C(=O)CCl)C(C(=O)NCCc4ccccc4)c4cccs4)cc3)CC2)C(C)(C)C)cc1` (some centres undefined) has an Activity [2] of less than 10%.

Work on `O=C(CCOCCNc1cccc2c1C(=O)N(C1CCC(=O)NC1=O)C2=O)NCCOCCOCCC(=O)Nc1ccc(N(C(=O)CCl)C(C(=O)NCCc2ccccc2)c2cccs2)cc1` (centres undefined) yielded an Activity [1] of less than 10%.

`O=C1CCC(N2C(=O)c3cccc(NCCOCCOCCOCCOCCC(=O)Nc4ccc(N(C(=O)CCl)C(C(=O)NCCc5ccccc5)c5cccs5)cc4)c3C2=O)C(=O)N1` (centres undefined) showed an Activity [1] of 14.5%.

With `Cc1ncsc1-c1ccc([C@H](C)NC(=O)[C@@H]2C[C@@H](O)CN2C(=O)[C@@H](NC(=O)CCCCCCCC(=O)Nc2ccc(N(C(=O)CCl)C(C(=O)NCCc3ccccc3)c3cccs3)cc2)C(C)(C)C)cc1` (some centres undefined) the Activity [2] was 21%.

Molecule `O=C1CCC(N2C(=O)c3cccc(OCC(=O)N4CCN(CC(=O)Nc5ccc(N(C(=O)CCl)C(C(=O)NCCc6ccccc6)c6cccs6)cc5)CC4)c3C2=O)C(=O)N1` (centres undefined) has an Activity [1] of less than 10%.

For `O=C1CCC(N2C(=O)c3cccc(OCC(=O)Nc4ccc(N(C(=O)CCl)C(C(=O)NCCc5ccccc5)c5cccs5)cc4)c3C2=O)C(=O)N1` (centres undefined), the Activity [1] was less than 10%, the IC50 [5] was 11.9 µM and the Activity [3] was “Active”. For the same molecule, the Activity [4] was “Active”.

With `O=C(CCOCCNc1cccc2c1C(=O)N(C1CCC(=O)NC1=O)C2=O)NCCCCCC(=O)Nc1ccc(N(C(=O)CCl)C(C(=O)NCCc2ccccc2)c2cccs2)cc1` (centres undefined) the Activity [1] was 18% and the IC50 [5] was 31.8 µM.

`O=C1CCC(N2C(=O)c3cccc(NCCOCCOCCOCCC(=O)Nc4ccc(N(C(=O)CCl)C(C(=O)NCCc5ccccc5)c5cccs5)cc4)c3C2=O)C(=O)N1` (centres undefined) showed an Activity [1] of 19.4%.

For `O=C(CCOCCOCCNc1cccc2c1C(=O)N(C1CCC(=O)NC1=O)C2=O)NCCOCCC(=O)Nc1ccc(N(C(=O)CCl)C(C(=O)NCCc2ccccc2)c2cccs2)cc1` (centres undefined), the Activity [1] was 16.4%.

Molecule `O=C(CCOCCNc1cccc2c1CN(C1CCC(=O)NC1=O)C2=O)NCCCC(=O)Nc1ccc(N(C(=O)CCl)C(C(=O)NCCc2ccccc2)c2cccs2)cc1` (centres undefined) has an Activity [1] of less than 10%.

Molecule `O=C(CCOCCNc1cccc2c1C(=O)N(C1CCC(=O)NC1=O)C2=O)NCCOCCC(=O)Nc1ccc(N(C(=O)CCl)C(C(=O)NCCc2ccccc2)c2cccs2)cc1` (centres undefined) has an Activity [1] of 30.1% and an IC50 [5] of 29.2 µM.

`COc1ccc(N(C(=O)CCl)C(C(=O)NCCc2ccccc2)c2ccc(NC(=O)CCOCCOCCNc3cccc4c3C(=O)N(C3CCC(=O)NC3=O)C4=O)cc2)cc1Cl` (centres undefined) gave an Activity [2] of less than 10%.

Molecule `COc1ccc(N(C(=O)CCl)C(C(=O)NCCc2ccccc2)c2ccc(NC(=O)CCOCCNC(=O)CCOCCNc3cccc4c3C(=O)N(C3CCC(=O)NC3=O)C4=O)cc2)cc1Cl` (centres undefined) has an Activity [2] of 39.2% and an IC50 [5] of 13 µM.

`O=C(CCOCCNc1cccc2c1C(=O)N(C1CCC(=O)NC1=O)C2=O)NCCCCCCC(=O)Nc1ccc(N(C(=O)CCl)C(C(=O)NCCc2ccccc2)c2cccs2)cc1` (centres undefined) showed an Activity [1] of less than 10%.

For `O=C(CCOCCNc1cccc2c1CN(C1CCC(=O)NC1=O)C2=O)NCCC(=O)Nc1ccc(N(C(=O)CCl)C(C(=O)NCCc2ccccc2)c2cccs2)cc1` (centres undefined), the Activity [1] was less than 10%.

`O=C1CCC(N2C(=O)c3cccc(NCCOCCOCCOCCC(=O)N4CCN(CC(=O)Nc5ccc(N(C(=O)CCl)C(C(=O)NCCc6ccccc6)c6cccs6)cc5)CC4)c3C2=O)C(=O)N1` (centres undefined) was tested, and the Activity [1] was less than 10%.

For `O=C(CCOCCNc1cccc2c1C(=O)N(C1CCC(=O)NC1=O)C2=O)NCCCCC(=O)Nc1ccc(N(C(=O)CCl)C(C(=O)NCCc2ccccc2)c2cccs2)cc1` (centres undefined), the Activity [1] was less than 10%.

`COc1ccc(N(C(=O)CCl)C(C(=O)NCCc2ccccc2)c2ccc(NC(=O)CCOCCNc3cccc4c3C(=O)N(C3CCC(=O)NC3=O)C4=O)cc2)cc1Cl` (centres undefined) was tested, and the Activity [2] was 28.7%.

`Cc1ncsc1-c1ccc([C@@H](C)NC(=O)[C@@H]2C[C@@H](O)CN2C(=O)[C@@H](NC(=O)CCCCCC(=O)Nc2ccc(N(C(=O)CCl)C(C(=O)NCCc3ccccc3)c3cccs3)cc2)C(C)(C)C)cc1` (some centres undefined) showed an Activity [2] of less than 10%.

In the case of `O=C(CCOCCNc1cccc2c1C(=O)N(C1CCC(=O)NC1=O)C2=O)NCCCC(=O)Nc1ccc(N(C(=O)CCl)C(C(=O)NCCc2ccccc2)c2cccs2)cc1` (centres undefined), the Activity [1] is reported as 33.8% and the IC50 [5] is reported as 37.7 µM.

`O=C(CCOCCNc1cccc2c1C(=O)N(C1CCC(=O)NC1=O)C2=O)NC(=O)Nc1ccc(N(C(=O)CCl)C(C(=O)NCCc2ccccc2)c2cccs2)cc1` (centres undefined) gave an Activity [1] of less than 10%.

With `Cc1ncsc1-c1ccc([C@H](C)NC(=O)[C@@H]2C[C@@H](O)CN2C(=O)[C@@H](NC(=O)CCCCCCCCCC(=O)Nc2ccc(N(C(=O)CCl)C(C(=O)NCCc3ccccc3)c3cccs3)cc2)C(C)(C)C)cc1` (some centres undefined) the Activity [2] was less than 10%.

`Cc1ncsc1-c1ccc([C@H](C)NC(=O)[C@@H]2C[C@@H](O)CN2C(=O)[C@@H](NC(=O)CCCCCCCCC(=O)Nc2ccc(N(C(=O)CCl)C(C(=O)NCCc3ccccc3)c3cccs3)cc2)C(C)(C)C)cc1` (some centres undefined) showed an Activity [2] of 28.6%.

`O=C(Cn1cc(COc2cccc3c2C(=O)N(C2CCC(=O)NC2=O)C3=O)nn1)NCCCCC(=O)Nc1ccc(N(C(=O)CCl)C(C(=O)NCCc2ccccc2)c2cccs2)cc1` (centres undefined) gave an Activity [2] of less than 10%.

`C=C(F)C(=O)N(c1ccc(NC(=O)CCOCCNC(=O)CCOCCNc2cccc3c2C(=O)N(C2CCC(=O)NC2=O)C3=O)cc1)C(C(=O)NCCc1ccccc1)c1cccs1` (centres undefined) gave an Activity [2] of less than 10%.
